Experimental data as given in PubChem BioAssay (NCI).
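How tested: cells in 96-well plates exposed to compound for 48 hours at five concentrations. GI50 is the concentration that inhibits growth by half. The concentration for full growth arrest is given as TGI.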

How the values were obtained:
Assay in all cases: NCI anticancer screen, dose series, 48 h
[1] = test system: SF-268 CNS
[2] = test system: HCT-116 colon
[3] = test system: RXF 393 renal
[4] = test system: UACC-257 melanoma
[5] = test system: 786-0 renal
[6] = test system: RPMI-8226 leukemia
[7] = test system: KM12 colon
[8] = test system: OVCAR-3 ovarian
[9] = test system: CAKI-1 renal
[10] = test system: MDA-MB-435

SMILES	TGI [1]	TGI [2]	TGI [3]	TGI [4]	TGI [5]	TGI [6]	TGI [7]	TGI [8]	TGI [9]	TGI [10]	GI50 [9]	GI50 [1]	GI50 [2]	GI50 [4]	GI50 [5]	GI50 [6]	GI50 [10]	GI50 [7]	GI50 [8]
COc1ccc(C(=O)C(c2ccc(OC)cc2)C2(O)C(=O)Nc3c(C)cc(Cl)cc32)cc1 (stereo not given)	> 100 µM	> 100 µM	> 100 µM	> 100 µM	> 100 µM	80.4 µM	> 100 µM	> 100 µM	–	–	–	–	–	–	–	–	–	–	–
Cc1cc(O)c(C(=O)CC2(O)C(=O)Nc3c(Cl)cc(Cl)cc32)c(=O)o1 (stereo not given)	> 100 µM	> 100 µM	–	> 100 µM	> 100 µM	> 100 µM	> 100 µM	> 100 µM	> 100 µM	–	–	–	–	–	–	–	–	–	–
COC(=O)/C=C(C)/C=C/c1cc(C(C)=O)c(C)o1	> 100 µM	> 100 µM	–	> 100 µM	> 100 µM	> 100 µM	> 100 µM	> 100 µM	> 100 µM	–	–	–	–	–	–	–	–	–	–
CC(C)=CC(=O)Oc1ccc([N+](=O)[O-])cc1	> 100 µM	> 100 µM	> 100 µM	> 100 µM	> 100 µM	> 100 µM	> 100 µM	> 100 µM	53.8 µM	–	–	–	–	–	–	–	–	–	–
COc1ccccc1C1=C2C(=O)N(C)C(c3ccccc3OC)=C2C(=O)N1C	> 100 µM	> 100 µM	–	> 100 µM	85.5 µM	–	> 100 µM	> 100 µM	> 100 µM	> 100 µM	–	–	–	–	–	–	–	–	–
NCCCC(=O)Nc1ccncc1	> 100 µM	> 100 µM	–	> 100 µM	> 100 µM	> 100 µM	> 100 µM	> 100 µM	> 100 µM	> 100 µM	> 100 µM	> 100 µM	> 100 µM	> 100 µM	> 100 µM	> 100 µM	> 100 µM	> 100 µM	> 100 µM
C[C@@H]1O[C@@H](O[C@@H]2[C@@H](O)[C@H](OCCc3ccc(O)c(O)c3)O[C@H](COC(=O)/C=C/c3ccc(O)c(O)c3)[C@H]2O)[C@H](O)[C@H](O)[C@H]1O	–	75.3 µM	–	> 100 µM	> 100 µM	43.4 µM	> 100 µM	> 100 µM	> 100 µM	40.1 µM	98.3 µM	–	36.1 µM	62.9 µM	58.4 µM	13.7 µM	19.9 µM	> 100 µM	13 µM
CC1(CO)OC1COCc1ccccc1 (stereo not given)	> 100 µM	–	> 100 µM	> 100 µM	> 100 µM	> 100 µM	> 100 µM	> 100 µM	–	–	–	–	–	–	–	–	–	–	–
CC(=O)NC1=C(Nc2ccc(C)cc2)C(=O)c2ccccc2C1=O	> 75 µM	48.5 µM	> 75 µM	51.5 µM	39.3 µM	31.6 µM	> 75 µM	45.7 µM	> 75 µM	–	–	–	–	–	–	–	–	–	–
Cn1nc(-c2ccccc2)c(N=[N+]=[N-])cc1=O	> 100 µM	> 100 µM	> 100 µM	> 100 µM	> 100 µM	> 100 µM	> 100 µM	> 100 µM	> 100 µM	–	–	–	–	–	–	–	–	–	–
